Values quoted from earlier work, collected in publication PMC11667226 (Theranostics, 2025).

System: EGFR
Settings: microscopic histopathology as reference; ref Van Keulen et al. [36]; cited from earlier work
From the text: Van Keulen et al. reported a 95% sensitiv ...

Substance: panitumumab-IRDye800: antibody-based optical imaging agent targeting EGFR
- Sensitivity for detection of inadequate margins (< 5mm): 95%
- Specificity for detection of inadequate margins (< 5mm): 89%
